Measured values from the supplement of paper PMC10307832.

What was measured:
Assay in all cases: relative viability (nuclei count vs DMSO), 5 days (fraction); higher = more cells survive
[1] = compound: Cc1ccc(NC(=O)c2ccc(CN3CCN(C)CC3)cc2)cc1Nc1nc(-c2cccnc2)cs1 [Masitinib] + Cc1nc(Nc2ncc(C(=O)Nc3c(C)cccc3Cl)s2)cc(N2CCN(CCO)CC2)n1 [Dasatinib] (partner 0.075 µM)
Procedure, shortened: (§1)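 Nuclei were stained with Hoechst during a one-step fixation (final 0.05% Triton X-100, 1% formaldehyde, 1 ug/ml Hoechst) carried out 5 days after dosing, then counted on 4× images. The cells, lung cancer lines in 1536-well plates, had been dosed by pin tool the day after seeding with one drug alone or a fixed anchor-drug dose plus five library-drug doses (not always all listed) in √10 steps. Relative viability is the nuclei count in treated wells divided by that in vehicle wells, and each value is the median of duplicate plates.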

[2] = compound: Cc1ccc(NC(=O)c2ccc(CN3CCN(C)CC3)cc2)cc1Nc1nc(-c2cccnc2)cs1 [Masitinib] + O=C(CCCCCCC(=O)Nc1ccccc1)NO [Vorinostat] (partner 1 µM)
Procedure, shortened: as §1

[3] = compound: Cc1ccc(NC(=O)c2ccc(CN3CCN(C)CC3)cc2)cc1Nc1nc(-c2cccnc2)cs1 [Masitinib] + Nc1ncn([C@H]2C[C@H](O)[C@@H](CO)O2)c(=O)n1 [Decitabine] (partner 2 µM)
Procedure, shortened: as §1

[4] = compound: CC1=CC(=CC=C1)NC2=NC(=CS2)C3=CC=NC=C3 + O=C(CCCCCCC(=O)Nc1ccccc1)NO [Vorinostat] (partner 1 µM)
Procedure, shortened: as §1

Cell Line: LK-2
- relative viability ([1]; first compound 0.01 µM): 0.336
- relative viability ([1]; first compound 0.03162 µM): 0.243
- relative viability ([1]; first compound 0.1 µM): 0.289
- relative viability ([1]; first compound 0.3162 µM): 0.306
- relative viability ([1]; first compound 1 µM): 0.263
- relative viability ([2]; first compound 0.01 µM): 0.246
- relative viability ([2]; first compound 0.03162 µM): 0.265
- relative viability ([2]; first compound 0.1 µM): 0.393
- relative viability ([2]; first compound 0.3162 µM): 0.225
- relative viability ([2]; first compound 1 µM): 0.369
- relative viability ([3]; first compound 0.01 µM): 0.342
- relative viability ([3]; first compound 0.03162 µM): 0.261
- relative viability ([3]; first compound 0.1 µM): 0.366
- relative viability ([3]; first compound 0.3162 µM): 0.249
- relative viability ([3]; first compound 1 µM): 0.281
- relative viability ([4]; first compound 0.08 µM): 0.356
- relative viability ([4]; first compound 0.253 µM): 0.307
- relative viability ([4]; first compound 0.8 µM): 0.527
- relative viability ([4]; first compound 2.53 µM): 0.402
- relative viability ([4]; first compound 8 µM): 1

Cell Line: NCI-H2228
- relative viability ([1]; first compound 0.01 µM): 0.544
- relative viability ([1]; first compound 0.03162 µM): 0.461
- relative viability ([1]; first compound 0.1 µM): 0.729
- relative viability ([1]; first compound 0.3162 µM): 0.523
- relative viability ([1]; first compound 1 µM): 0.425
- relative viability ([2]; first compound 0.01 µM): 0.604
- relative viability ([2]; first compound 0.03162 µM): 0.59
- relative viability ([2]; first compound 0.1 µM): 0.693
- relative viability ([2]; first compound 0.3162 µM): 0.593
- relative viability ([2]; first compound 1 µM): 0.665
- relative viability ([4]; first compound 0.08 µM): 0.343
- relative viability ([4]; first compound 0.253 µM): 0.514
- relative viability ([4]; first compound 0.8 µM): 0.42
- relative viability ([4]; first compound 2.53 µM): 0.412
- relative viability ([4]; first compound 8 µM): 0.824

Cell Line: NCI-H322M
- relative viability ([1]; first compound 0.01 µM): 0.259
- relative viability ([1]; first compound 0.03162 µM): 0.286
- relative viability ([1]; first compound 0.1 µM): 0.236
- relative viability ([1]; first compound 0.3162 µM): 0.236
- relative viability ([1]; first compound 1 µM): 0.253
- relative viability ([2]; first compound 0.01 µM): 0.831
- relative viability ([2]; first compound 0.03162 µM): 0.821
- relative viability ([2]; first compound 0.1 µM): 0.881
- relative viability ([2]; first compound 0.3162 µM): 0.91
- relative viability ([2]; first compound 1 µM): 0.882
- relative viability ([3]; first compound 0.01 µM): 0.626
- relative viability ([3]; first compound 0.03162 µM): 0.733
- relative viability ([3]; first compound 0.1 µM): 0.612
- relative viability ([3]; first compound 0.3162 µM): 0.719
- relative viability ([3]; first compound 1 µM): 0.706
- relative viability ([4]; first compound 0.08 µM): 0.788
- relative viability ([4]; first compound 0.253 µM): 0.759
- relative viability ([4]; first compound 0.8 µM): 0.916
- relative viability ([4]; first compound 2.53 µM): 0.814
- relative viability ([4]; first compound 8 µM): 0.95

Cell Line: NCI-H1993
- relative viability ([1]; first compound 0.01 µM): 0.554
- relative viability ([1]; first compound 0.03162 µM): 0.508
- relative viability ([1]; first compound 0.1 µM): 0.577
- relative viability ([1]; first compound 0.3162 µM): 0.532
- relative viability ([1]; first compound 1 µM): 0.52
- relative viability ([2]; first compound 0.01 µM): 0.727
- relative viability ([2]; first compound 0.03162 µM): 0.527
- relative viability ([2]; first compound 0.1 µM): 0.943
- relative viability ([2]; first compound 0.3162 µM): 0.723
- relative viability ([2]; first compound 1 µM): 0.762
- relative viability ([3]; first compound 0.01 µM): 0.49
- relative viability ([3]; first compound 0.03162 µM): 0.545
- relative viability ([3]; first compound 0.1 µM): 0.534
- relative viability ([3]; first compound 0.3162 µM): 0.459
- relative viability ([3]; first compound 1 µM): 0.496
- relative viability ([4]; first compound 0.08 µM): 0.691
- relative viability ([4]; first compound 0.253 µM): 0.649
- relative viability ([4]; first compound 0.8 µM): 0.726
- relative viability ([4]; first compound 2.53 µM): 0.819
- relative viability ([4]; first compound 8 µM): 0.726

Cell Line: NCI-H2170
- relative viability ([1]; first compound 0.01 µM): 0.5
- relative viability ([1]; first compound 0.03162 µM): 0.473
- relative viability ([1]; first compound 0.1 µM): 0.547
- relative viability ([1]; first compound 0.3162 µM): 0.56
- relative viability ([1]; first compound 1 µM): 0.519
- relative viability ([2]; first compound 0.01 µM): 0.781
- relative viability ([2]; first compound 0.03162 µM): 0.708
- relative viability ([2]; first compound 0.1 µM): 0.908
- relative viability ([2]; first compound 0.3162 µM): 0.869
- relative viability ([2]; first compound 1 µM): 0.823
- relative viability ([3]; first compound 0.01 µM): 0.467
- relative viability ([3]; first compound 0.03162 µM): 0.473
- relative viability ([3]; first compound 0.1 µM): 0.509
- relative viability ([3]; first compound 0.3162 µM): 0.488
- relative viability ([3]; first compound 1 µM): 0.449
- relative viability ([4]; first compound 0.08 µM): 0.695
- relative viability ([4]; first compound 0.253 µM): 0.901
- relative viability ([4]; first compound 0.8 µM): 0.731
- relative viability ([4]; first compound 2.53 µM): 0.697
- relative viability ([4]; first compound 8 µM): 0.599

Cell Line: LXF-289
- relative viability ([1]; first compound 0.01 µM): 0.223
- relative viability ([1]; first compound 0.03162 µM): 0.206
- relative viability ([1]; first compound 0.1 µM): 0.238
- relative viability ([1]; first compound 0.3162 µM): 0.202
- relative viability ([1]; first compound 1 µM): 0.207
- relative viability ([2]; first compound 0.01 µM): 0.646
- relative viability ([2]; first compound 0.03162 µM): 0.818
- relative viability ([2]; first compound 0.1 µM): 0.65
- relative viability ([2]; first compound 0.3162 µM): 0.854
- relative viability ([2]; first compound 1 µM): 0.743
- relative viability ([3]; first compound 0.01 µM): 0.332
- relative viability ([3]; first compound 0.03162 µM): 0.394
- relative viability ([3]; first compound 0.1 µM): 0.435
- relative viability ([3]; first compound 0.3162 µM): 0.369
- relative viability ([3]; first compound 1 µM): 0.41
- relative viability ([4]; first compound 0.08 µM): 0.746
- relative viability ([4]; first compound 0.253 µM): 0.808
- relative viability ([4]; first compound 0.8 µM): 0.801
- relative viability ([4]; first compound 2.53 µM): 0.679
- relative viability ([4]; first compound 8 µM): 0.718

Cell Line: NCI-H2405
- relative viability ([1]; first compound 0.01 µM): 0.2
- relative viability ([1]; first compound 0.03162 µM): 0.214
- relative viability ([1]; first compound 0.1 µM): 0.213
- relative viability ([1]; first compound 0.3162 µM): 0.238
- relative viability ([1]; first compound 1 µM): 0.193
- relative viability ([2]; first compound 0.01 µM): 0.791
- relative viability ([2]; first compound 0.03162 µM): 0.937
- relative viability ([2]; first compound 0.1 µM): 0.858
- relative viability ([2]; first compound 0.3162 µM): 0.938
- relative viability ([2]; first compound 1 µM): 0.909
- relative viability ([3]; first compound 0.01 µM): 0.688
- relative viability ([3]; first compound 0.03162 µM): 0.692
- relative viability ([3]; first compound 0.1 µM): 0.762
- relative viability ([3]; first compound 0.3162 µM): 0.764
- relative viability ([3]; first compound 1 µM): 0.692
- relative viability ([4]; first compound 0.08 µM): 0.874
- relative viability ([4]; first compound 0.253 µM): 0.613
- relative viability ([4]; first compound 0.8 µM): 0.892
- relative viability ([4]; first compound 8 µM): 0.839

Cell Line: NCI-H2023
- relative viability ([1]; first compound 0.01 µM): 0.551
- relative viability ([1]; first compound 0.03162 µM): 0.602
- relative viability ([1]; first compound 0.1 µM): 0.543
- relative viability ([1]; first compound 0.3162 µM): 0.395
- relative viability ([1]; first compound 1 µM): 0.513
- relative viability ([2]; first compound 0.01 µM): 0.493
- relative viability ([2]; first compound 0.03162 µM): 0.583
- relative viability ([2]; first compound 0.1 µM): 0.66
- relative viability ([2]; first compound 0.3162 µM): 0.611
- relative viability ([2]; first compound 1 µM): 0.721
- relative viability ([3]; first compound 0.01 µM): 0.205
- relative viability ([3]; first compound 0.03162 µM): 0.271
- relative viability ([3]; first compound 0.1 µM): 0.327
- relative viability ([3]; first compound 0.3162 µM): 0.195
- relative viability ([3]; first compound 1 µM): 0.187
- relative viability ([4]; first compound 0.08 µM): 0.594
- relative viability ([4]; first compound 0.253 µM): 0.429
- relative viability ([4]; first compound 0.8 µM): 0.689
- relative viability ([4]; first compound 2.53 µM): 0.531
- relative viability ([4]; first compound 8 µM): 0.405
